Literature values, collected in patent EP1586313A1, “Pharmaceutical composition with metoclopramide and process for its preparation” (The Jordanian Pharmaceutical Manufacturing Co. Ltd., priority 2004, dated 2005).

Conditions: reportedly

peak plasma metoclopramide concentrations associated with metoclopramide induced akathisia: greater than 120 ng/ml
Compound: CCN(CC)CCNC(=O)c1cc(Cl)c(N)cc1OC.Cl.O [metoclopramide, 4-amino-5-chloro-N-(2-diethylaminoethyl)-2-methoxybenzamide hydrochloride monohydrate]
